Measurements reported in ChEMBL document CHEMBL1154159, “Didanosine ester prodrugs: synthesis, albumin binding properties and pharmacokinetic studies in rats” (Eur J Med Chem, 2009).

Key:
[1] = Chemical stability in phosphate buffered saline assessed as compound degradation at 0.05 M at pH 7.4 at 5 degC after 1 hr by HPLC; assay type: physicochemical; details: buffer, pH 7.4, 1 h
[2] = Chemical stability in phosphate buffered saline assessed as compound degradation at 0.05 M at pH 7.4 at 25 degC after 1 hr by HPLC; assay type: physicochemical; details: buffer, pH 7.4, 1 h
[3] = Chemical stability in phosphate buffered saline assessed as compound degradation at 0.05 M at pH 7.4 at 40 degC after 1 hr by HPLC; assay type: physicochemical; details: buffer, pH 7.4, 1 h
[4] = Chemical stability in phosphate buffered saline assessed as compound degradation at 0.05 M at pH 7.4 at 5 to 40 degC after 14 days by HPLC; assay type: physicochemical; details: buffer, pH 7.4, 336 h
[5] = Clearance in Rowet nu/nu rat plasma at 15 mg/kg, iv after 5 mins to 6 hrs; assay type: ADME, organism-based; set-up: dose 15 mg/kg, route intravenous
[6] = AUC (0 to 360 mins) in Rowet nu/nu rat plasma at 15 mg/kg, iv after 5 mins to 6 hrs; assay type: ADME, organism-based; set-up: time < 6 hr, dose 15 mg/kg, route intravenous
[7] = Half life in rat at 125 mg/kg/hr, iv after 2 hrs; assay type: ADME, organism-based; set-up: route intravenous; details: in vivo
[8] = Clearance in Rowet nu/nu rat plasma at […], iv after 5 mins to 6 hrs; assay type: ADME, organism-based
[9] = AUC (0 to 360 mins) in Rowet nu/nu rat plasma at […], iv after 5 mins to 6 hrs; assay type: ADME, organism-based; set-up: time < 6 hr, route intravenous

In the case of `O=C(O)CCCCCCCCCCC(=O)OC[C@H]1CC[C@@H](n2cnc3c(=O)[nH]cnc32)O1`, the Stability [1] is reported as “Stable”, the Stability [2] is reported as “Stable” and the Stability [3] is reported as “Stable”. For the same compound, the Stability [4] was “Unstable”.
With `O=C(O)CCCCC(=O)OC[C@H]1CC[C@@H](n2cnc3c(=O)[nH]cnc32)O1` the Stability [1] was “Stable”, the Stability [2] was “Stable” and the Stability [3] was “Stable”. For the same compound, the Stability [4] was “Unstable”.
In the case of `O=C(O)CCCCCCCC(=O)OC[C@H]1CC[C@@H](n2cnc3c(=O)[nH]cnc32)O1`, the Stability [1] is reported as “Stable”, the Stability [2] is reported as “Stable” and the Stability [3] is reported as “Stable”. The Stability [4] was “Unstable”, the clearance [5] was 6.42 L/h/kg and the AUC(0-t) at 6 h [6] was 2.68 µg·h/mL.
`O=c1[nH]cnc2c1ncn2[C@H]1CC[C@@H](CO)O1` [DIDANOSINE] showed a half-life [7] of 1 h, a clearance [8] of 8.04 L/h/kg and an AUC(0-t) at 6 h [9] of 2.1 µg·h/mL.
